# Assay results: patent publication US10265318B2, “Medicinal drug with activity against gram positive bacteria, mycobacteria and fungi” (priority 2015, dated 2019)
# Experiments:
# bacteria and fungi = test: Antimicrobial activity, overall comparison of the substances; format: cell-based
# MSSA strain ATCC 29213 = test: MIC, broth macrodilution (CLSI); format: cell-based, S. aureus; conditions: planktonic, inoculum 10^5 cfu/mL
# [1] = system: biofilms of S. aureus MRSA 24/31; test: 24-hour action upon 24-hour biofilms in 96-well plates, CFU count; conditions: S. aureus MRSA 24/31 biofilm
# Text: (§1) Biofilms used in testing were produced by 24-hour cultivation in 96-well plates.
# [2] = system: biofilms of S. aureus ATCC 29213; test: as above; conditions: S. aureus ATCC 29213 biofilm
# Text: as §1
# VRSA strain VT-E-25 = test: MIC, broth macrodilution (CLSI); conditions: planktonic, inoculum 10^5 cfu/mL
# Experimental: (§2) The MICs were determined using a broth macrodilution method with cation-adjusted Mueller-Hinton broth II (Becton Dickinson) at standard inoculum (10^5 cfu/mL) following the CLSI recommendations.
# [3] = system: biofilms of S. aureus MRSA 201/010; test: 24-hour action upon 24-hour biofilms in 96-well plates, CFU count; conditions: S. aureus MRSA 201/010 biofilm
# Text: as §1
# VRSA strain VT-A-199 = test: MIC, broth macrodilution (CLSI); conditions: planktonic, inoculum 10^5 cfu/mL
# Experimental: as §2
# VRSA strain VT-V-18 = test: MIC, broth macrodilution (CLSI); conditions: planktonic, inoculum 10^5 cfu/mL
# Experimental: as §2
# S. aureus MRSA 24/31 = test: MIC, broth microdilution or agar dilution (CLSI); format: cell-based, Staphylococcus aureus
# S. aureus MRSA 201/010 = test: MIC, broth microdilution or agar dilution (CLSI); format: cell-based, Staphylococcus aureus
# [4] = system: Aspergillus fumigatus ATCC 204305; test: MIC, broth microdilution or agar dilution (CLSI); format: cell-based; conditions: A. fumigatus ATCC 204305
# [5] = system: Candida albicans ATCC 10231; test: MIC, broth microdilution or agar dilution (CLSI); format: cell-based; conditions: C. albicans ATCC 10231
smiles,measurement,setting,value
"O=C1NC(=O)C(=Cc2cc(Br)cc(Br)c2O)C(=O)N1 [Compound 1, 5-(3,5-dibromo-2-hydroxybenzylidene) perhydropyrimidine-2.4,6-trione]","antimicrobial activity, comparison among the inventive substances",bacteria and fungi,best activity
same,"MSSA strain MIC, ATCC 29213",MSSA strain ATCC 29213,0.7 µg/mL
same,decrease of the number of CFU in biofilm,[1]; 24-hour action,"10,000 times"
same,decrease of the number of CFU in biofilm,[2]; 24-hour action,"10,000 times"
same,"VRSA strain MIC, VT-E-25",VRSA strain VT-E-25,1.5 μg/ml
same,decrease of the number of CFU in biofilm,[3]; 24-hour action,"10,000 times"
same,"VRSA strain MIC, VT-A-199",VRSA strain VT-A-199,0.07 µg/mL
same,"VRSA strain MIC, VT-V-18",VRSA strain VT-V-18,0.7 µg/mL
"O=Cc1cc(Br)cc(Br)c1[O-].[Na+] [Compound 17, 2-formyl-4,6-dibromo sodium phenolate]","antimicrobial activity, comparison among the inventive substances",bacteria and fungi,best activity
"O=Cc1cc(Br)cc([N+](=O)[O-])c1[O-].[K+] [Compound 19, 2-formyl-4-bromo-6-nitro potassium phenolate]","antimicrobial activity, comparison among the inventive substances",bacteria and fungi,best activity
"COc1ccc(CN2C(=O)NC(=O)C(=Cc3cc(Br)cc(Br)c3O)C2=O)cc1 [Compound 15, 1-(4-methoxybenzyl)-5-(3,5-dibromo-2-hydroxybenzylidene) perhydropyrimidine-2.4,6-trione]","antimicrobial activity, comparison among the inventive substances",bacteria and fungi,best activity
"CC1(C)SC2C(NC(=O)[C@H](N)c3ccccc3)C(=O)N2C1C(=O)O (stereo partly drawn) [ampicillin, 6-[[(2R)-aminophenylacetyl]amino]-3,3-dimethyl-7-oxo-4-thia-1-azabicyclo[3.2.0]heptane-2carboxylic acid]",MIC,S. aureus MRSA 24/31,no effect
same,effect on the number of CFU in biofilm,[1]; 10 mg/l,no effect whatsoever
same,decrease of the number of CFU in biofilm,[2]; 10 mg/l,10 times
same,MIC,S. aureus MRSA 201/010,no effect
same,effect on the number of CFU in biofilm,[3]; 10 mg/l,no effect whatsoever
same,MIC,[4],no effect
same,MIC,[5],no effect
